Consider 25 sequences from PMC10363480 (Plant Communications, 2023).

The first assay has as its system mitochondria or chloroplast of Chlamydomonas reinhardtii. Nature of the assay: Subcellular localization of Venus reporter by epifluorescence microscopy (manual targeting assignment). To be noted: 15 N-terminal residues of RCA1-cTP added, no C-terminal element; Figure 2. The format is cell-based. The essentials: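 Targeting peptide variants fused to Venus reporter, transformed into Chlamydomonas wild-type T222+ (CC-5101); three independent transformant lines per construct. Localization assigned manually from epifluorescence images using chlorophyll autofluorescence for chloroplast and 0.1 μM MitoTracker Red CMXRos (30 min) for mitochondria. Automated segmentation used for validation.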
Turning to “GWIRDFGKRIERVGQHTRDATIQTIAVAQQAANVAATLKG [S1D, sarcotoxin-1D, HA-RAMP antimicrobial peptide, reference compound]”, the “mitochondrial targeting upon sole addition of cTP-N (^cP)” value was “enabled mitochondrial targeting”.

The same assay, now with this note: C-terminal element of RCA1-cTP added to the named peptide; Figure 2 rows E and F; bare name = K and R versions.
As to “GWIRDFGKRIERVGQHTRDATIQTIAVAQQAANVAATLKG [S1D, sarcotoxin-1D, HA-RAMP antimicrobial peptide, reference compound]”, the “chloroplast targeting upon addition of cTP-C (P^c)” value is reported as “enabled chloroplast targeting”.

The assay is the same for the next values; noted with them: Figure 2; bare name = K and R versions.
In the case of “GWIRDFGKRIERVGQHTRDATIQTIAVAQQAANVAATLKG [S1D, sarcotoxin-1D, HA-RAMP antimicrobial peptide, reference compound]”, the “targeting when combining cTP-N with mTP-C (^cP^m)” value was “dual targeting”.

The assay is the same for the next values; noted with them: manual targeting assignment of the Venus reporter construct in Chlamydomonas: Neither / Mitochondria / Chloroplast / Dual, (partial) = partial targeting.
For the sequence “MQVTMKSSAVSGQKVGGAKVATKLTQTAESFRGVSSQFFDAPNGPSVKQVLIEDEW [c.CH.K.m]”, the Localisation entry is “Neither”.

With “MSFLTTFRDLAIRAARSAGQSVLSTLSCRLSNTC [B2I.R]”, the Localisation entry was “Mitochondria”. For “MQVTMKSSAVSGQRVMGWIRDFGRRIERVGQHTRDATIQTIAVAQQAANVAATLRGLTQTAESFRGVSSQFFDAPNGPSVKQVLIEDEW [c.S1D.R.m]”, the Localisation result is recorded as “Dual”.

With “MDEVNNDNCRIRFRGDISSESDRMNINYSVRRAQLQVVASSRKQMGRWRSIDAGVDASDDQ [RP2.R.c]”, the Localisation entry is given as “Neither”. On the same count and under the same terms, as for “MLTQTAESFRGVSSQFFDAPNGPSVKQVLIEDEW [-.m]”, the entry is “Neither”; as for “MQVTMKSSAVSGQRVMLKRVGQSLVPFARAG [c.MH.R]”, “Neither”. Still for that read-out and setting: as for “MALWRTMLRRLGTMALHAGRAAFGAAADTISQ [DDM.R]”, the entry is “Neither”. As to “MGGARVATRSVRRAQLQVVASSRKQMGRWRSIDAGVDASDDQ [CH.R.c]”, the Localisation entry was “Chloroplast”. The same measure, in the same setting: as for “MQVTMKSSAVSGQRVMGLLLDTLRGAARDIAGIALERLRCRITGCRPLTQTAESFRGVSSQFFDAPNGPSVKQVLIEDEW [c.R2G.R.m]”, the entry is “Mitochondria”; as for “MGLLLDTLRGAARDIAGIALERLRCRITGCRP [R2G.R]”, “Mitochondria (partial)”. “MGWIRDFGRRIERVGQHTRDATIQTIAVAQQAANVAATLRGLTQTAESFRGVSSQFFDAPNGPSVKQVLIEDEW [S1D.R.m]”: the Localisation entry is “Neither”.

Staying with this assay, now noted: peptide-Venus reporter construct expressed in Chlamydomonas reinhardtii; manual targeting assignment (Neither / Mitochondria / Chloroplast / Dual; partial = partial targeting).
Turning to “MGLFSRFNRRRIRSGLIRIIRTAGREAGLEALRTGIDVIGCRIRGECLTQTAESFRGVSSQFFDAPNGPSVKQVLIEDEW [E1S.R.m]”, the Localisation result was “Mitochondria (partial)”. On the same count and under the same terms, as for “MQVTMKSSAVSGQRVGIGKFLHSAKKFGKAFVGEIMNSLTQTAESFRGVSSQFFDAPNGPSVKQVLIEDEW [c.MII.K.m]”, the entry is “Mitochondria (partial)”.

Turning to “MVNYGNGVSCSKTKCSVNWGIITHQAFRVTSGVASG [B15.K]”, the Localisation result was “Neither”. Same read-out and setting: as for MGIGRFLHSARRFGRAFVGEIMNS [MII.R], the entry is “Mitochondria”; as for “MGLFSKFNKKKIKSGLIKIIKTAGKEAGLEALRTGIDVIGCKIKGECSVRRAQLQVVASSRKQMGRWRSIDAGVDASDDQ [E1S.K.c]”, “Neither”; as for “MQVTMKSSAVSGQRVMKYYGNGVHCTRSGCSVNWGEAFSAGVHRLANGGNGFWSVRRAQLQVVASSRKQMGRWRSIDAGVDASDDQ [c.LCA.R.c]”, “Chloroplast”. For the sequence “MQVTMKSSAVSGQRVMGLFSRFNRRRIRSGLIRIIRTAGREAGLEALRTGIDVIGCRIRGECSVRRAQLQVVASSRKQMGRWRSIDAGVDASDDQ [c.E1S.R.c]”, the Localisation result is “Chloroplast”.

Still in this assay, the particulars now being: targeting of the Venus reporter fused to the peptide, expressed in Chlamydomonas reinhardtii; manual assignment from epifluorescence microscopy; full or partial.
As for “MQVTMKSSAVSGQRVNIVVYWNFTLWHMDINARNAGCDGEGSLTQTAESFRGVSSQFFDAPNGPSVKQVLIEDEW [c.RP1.K.m]”, the Localisation result is on record as “Neither”. Still for that read-out and setting: as for “MQVTMKSSAVSGQRVFLPLLAGLAANFLPRIFCRITRRCLTQTAESFRGVSSQFFDAPNGPSVKQVLIEDEW [c.B1E.R.m]”, the entry is “Dual”; as for “MQVTMKSSAVSGQRVMALWKTMLKKLGTMALHAGKAAFGAAADTISQ [c.DDM.K]”, “Neither”; as for “MGLLLDTLKGAAKDIAGIALEKLKCKITGCKPSVRRAQLQVVASSRKQMGRWRSIDAGVDASDDQ [R2G.K.c]”, “Neither”. On the same count and under the same terms, as for “MGWIRDFGKRIERVGQHTRDATIQTIAVAQQAANVAATLKGSVRRAQLQVVASSRKQMGRWRSIDAGVDASDDQ [S1D.K.c]”, the entry is “Chloroplast”; as for “MQVTMKSSAVSGQRVDEVNNDNCRIKFKGDISSESDKMNINYSVRRAQLQVVASSRKQMGRWRSIDAGVDASDDQ [c.RP2.K.c]”, “Neither”.
